What is called IC50 is the concentration that gives 50% inhibition.

For the experiment, the target named is T1, Recombinant human EP300 containing the bromodomain (EP300-BD (1040-1161)) (Homo sapiens, UniProt Q09472).
T1 construct: Recombinant human EP300 bromodomain (EP300-BD (1040-1161)); made in house; host or cells: E. coli BL21-CodonPlus (DE3), modified pET vector
T1 sequence (Q09472 1040-1161): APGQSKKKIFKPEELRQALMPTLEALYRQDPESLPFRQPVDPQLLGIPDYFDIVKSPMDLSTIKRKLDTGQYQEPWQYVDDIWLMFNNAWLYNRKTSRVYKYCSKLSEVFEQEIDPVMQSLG
As to the kind of experiment: EP300 Alphascreen binding assay. A digest of the protocol:
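Displacement of a biotinylated acetyl-K56 histone H3 peptide from the N-His bromodomain construct (1040-1161) measured by AlphaScreen proximity, beads at 7.5 μg/ml final, read 60 min after addition. Protein, peptide and compound first incubated 1 h at room temperature, pH 7.5 HEPES buffer; IC50 by four-parameter logistic fit.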

For `CCOc1cc(C(=O)O)cc(OCC)c1-n1cc(-c2ccc(C3CC3)nc2)c2ncc(-c3c(C)noc3C)cc21` [P-0192, 4-(3-(6-cyclopropylpyridin-3-yl)-6-(3,5-dimethylisoxazol-4-yl)-1H-pyrrolo[3,2-b]pyridin-1-yl)-3,5-diethoxybenzoic acid], the IC50 is 0.1 to 1000 nM.

Take `CCOc1cc(C(=O)O)cc(OCC)c1-n1cc(-c2cncc(Cl)c2)c2ncc(-c3c(C)noc3C)cc21` [P-0193, 4-(3-(5-chloropyridin-3-yl)-6-(3,5-dimethylisoxazol-4-yl)-1H-pyrrolo[3,2-b]pyridin-1-yl)-3,5-diethoxybenzoic acid]: the IC50 fell in the range of 0.1 to 1000 nM.

Consider `CCOc1cc(C(=O)O)cc(OCC)c1-n1cc(-c2ccc(OC)cc2F)c2ncc(-c3c(C)noc3C)cc21` [P-0194, 4-(6-(3,5-dimethylisoxazol-4-yl)-3-(2-fluoro-4-methoxyphenyl)-1H-pyrrolo[3,2-b]pyridin-1-yl)-3,5-diethoxybenzoic acid], for which the IC50 lay within 0.1 to 1000 nM.

In the case of `CCOc1cc(C(=O)O)cc(OCC)c1-n1cc(-c2cnn(C)c2)c2ncc(-c3c(C)noc3C)cc21` [P-0195, 4-(6-(3,5-dimethylisoxazol-4-yl)-3-(1-methyl-1H-pyrazol-4-yl)-1H-pyrrolo[3,2-b]pyridin-1-yl)-3,5-diethoxybenzoic acid], the IC50 lay in the range of 0.1 to 1000 nM.

On to `Cc1noc(C)c1-c1cnc2c(-c3ccccc3)cn(-c3ccc(C(=O)O)cc3OC(F)(F)F)c2c1` [P-0196, 4-(6-(3,5-dimethylisoxazol-4-yl)-3-phenyl-1H-pyrrolo[3,2-b]pyridin-1-yl)-3-(trifluoromethoxy)benzoic acid], for which the concentration for half-maximal inhibition (IC50) was 0.1 to 1000 nM.

`Cc1noc(C)c1-c1cnc2c(c1)c(-c1c(Cl)cc(C(=O)O)cc1Cl)cn2[C@@H](C)c1ccccn1` [P-0197, (S)-3,5-dichloro-4-(5-(3,5-dimethylisoxazol-4-yl)-1-(1-(pyridin-2-yl)ethyl)-1H-pyrrolo[2,3-b]pyridin-3-yl)benzoic acid]: the IC50 was 0.1 to 1000 nM.

As for `Cc1noc(C)c1-c1cnc2c(c1)c(-c1c(Cl)cc(C(=O)O)cc1OC(F)(F)F)cn2C(C1CC1)C1CC1` [P-0198, 3-chloro-4-(1-(dicyclopropylmethyl)-5-(3,5-dimethylisoxazol-4-yl)-1H-pyrrolo[2,3-b]pyridin-3-yl)-5-(trifluoromethoxy)benzoic acid], the IC50 is 0.1 to 1000 nM.

On to `Cc1noc(C)c1-c1cnc2c(c1)c(-c1ccc(C(=O)O)cc1OC(F)(F)F)cn2C(CC#N)C1CC1` (stereo not shown) [P-0199, 4-(1-(2-cyano-1-cyclopropylethyl)-5-(3,5-dimethylisoxazol-4-yl)-1H-pyrrolo[2,3-b]pyridin-3-yl)-3-(trifluoromethoxy)benzoic acid], for which the IC50 is 0.1 to 1000 nM.

Consider `Cc1noc(C)c1-c1cnc2c(c1)c(-c1ccc(C(=O)O)cc1OC(F)(F)F)cn2C(CC#N)C1CCCC1` (stereo not shown) [P-0200, 4-(1-(2-cyano-1-cyclopentylethyl)-5-(3,5-dimethylisoxazol-4-yl)-1H-pyrrolo[2,3-b]pyridin-3-yl)-3-(trifluoromethoxy)benzoic acid], for which the IC50 is 0.1 to 1000 nM.

`CCOc1cc(C(=O)O)cc(OCC)c1-n1cc(-c2cnc(OC)nc2)c2ncc(-c3c(C)noc3C)cc21` [P-0201, 4-(6-(3,5-dimethylisoxazol-4-yl)-3-(2-methoxypyrimidin-5-yl)-1H-pyrrolo[3,2-b]pyridin-1-yl)-3,5-diethoxybenzoic acid]: the concentration for half-maximal inhibition (IC50) fell in the range of 0.1 to 1000 nM.

In the case of `Cc1noc(C)c1-c1cnc2c(c1)c(-c1ccc(C(=O)O)cc1OC(F)(F)F)cn2S(=O)(=O)C1CC1` [P-0202, 4-(1-(cyclopropylsulfonyl)-5-(3,5-dimethylisoxazol-4-yl)-1H-pyrrolo[2,3-b]pyridin-3-yl)-3-(trifluoromethoxy)benzoic acid], the IC50 fell in the range of 0.1 to 1000 nM.

On to `Cc1noc(C)c1-c1cnc2c(c1)c(-c1ccc(C(=O)O)cc1OC(F)(F)F)cn2-c1ccnc(C(C)C)c1` [P-0203, 4-(5-(3,5-dimethylisoxazol-4-yl)-1-(2-isopropylpyridin-4-yl)-1H-pyrrolo[2,3-b]pyridin-3-yl)-3-(trifluoromethoxy)benzoic acid], for which the IC50 lay in the range of 0.1 to 1000 nM.

Turning to `Cc1noc(C)c1-c1cnc2c(c1)c(-c1ccc(C(=O)O)cc1OC(F)(F)F)cn2-c1cnccc1C#N` [P-0204, 4-(1-(4-cyanopyridin-3-yl)-5-(3,5-dimethylisoxazol-4-yl)-1H-pyrrolo[2,3-b]pyridin-3-yl)-3-(trifluoromethoxy)benzoic acid], the IC50 lay in the range of 0.1 to 1000 nM.

As to `CCOc1cc(C(=O)O)cc(F)c1-n1cc(-c2ccccc2)c2ncc(-c3c(C)noc3C)cc21` [P-0205, 4-(6-(3,5-dimethylisoxazol-4-yl)-3-phenyl-1H-pyrrolo[3,2-b]pyridin-1-yl)-3-ethoxy-5-fluorobenzoic acid], the IC50 was in the range of 0.1 to 1000 nM.

On to `CCOc1cccc(C#N)c1-n1cc(-c2ccccc2)c2ncc(-c3c(C)noc3C)cc21` [P-0206, 2-(6-(3,5-dimethylisoxazol-4-yl)-3-phenyl-1H-pyrrolo[3,2-b]pyridin-1-yl)-3-ethoxybenzonitrile], for which the IC50 was 0.1 to 1000 nM.

With `Cc1noc(C)c1-c1cnc2c(-c3ccccc3)cn(-c3c(Cl)cccc3C#N)c2c1` [P-0207, 3-chloro-2-(6-(3,5-dimethylisoxazol-4-yl)-3-phenyl-1H-pyrrolo[3,2-b]pyridin-1-yl)benzonitrile], the 50% inhibitory concentration (IC50) was in the range of 1000 to 8000 nM.

As to `CCOc1cc(C(=O)O)cc(OCC)c1-n1cc(C2=CCC(F)(F)CC2)c2ncc(-c3c(C)noc3C)cc21` [P-0208, 4-(3-(4,4-difluorocyclohex-1-en-1-yl)-6-(3,5-dimethylisoxazol-4-yl)-1H-pyrrolo[3,2-b]pyridin-1-yl)-3,5-diethoxybenzoic acid], the IC50 is 0.1 to 1000 nM.

Take `CCOc1cc(C(=O)O)cc(OCC)c1-n1cc(-c2ccc(F)c(Cl)c2)c2ncc(-c3c(C)noc3C)cc21` [P-0209, 4-(3-(3-chloro-4-fluorophenyl)-6-(3,5-dimethylisoxazol-4-yl)-1H-pyrrolo[3,2-b]pyridin-1-yl)-3,5-diethoxybenzoic acid]: the IC50 was in the range of 0.1 to 1000 nM.

Turning to `CCOc1cc(C(=O)O)cc(OCC)c1-n1cc(CC2CCC2)c2ncc(-c3c(COC)noc3C)cc21` [P-0210, 4-(3-(cyclobutylmethyl)-6-(3-(methoxymethyl)-5-methylisoxazol-4-yl)-1H-pyrrolo[3,2-b]pyridin-1-yl)-3,5-diethoxybenzoic acid], the IC50 is 0.1 to 1000 nM.

As to `Cc1cnccc1-n1cc(-c2ccc(C(=O)O)cc2OC(F)(F)F)c2cc(-c3c(C)noc3C)cnc21` [P-0211, 4-(5-(3,5-dimethylisoxazol-4-yl)-1-(3-methylpyridin-4-yl)-1H-pyrrolo[2,3-b]pyridin-3-yl)-3-(trifluoromethoxy)benzoic acid], the IC50 lay within 0.1 to 1000 nM.

`Cc1noc(C)c1-c1cnc2c(c1)c(-c1ccc(C(=O)O)cc1OC(F)(F)F)cn2C1CCS(=O)(=O)CC1` [P-0212, 4-(5-(3,5-dimethylisoxazol-4-yl)-1-(1,1-dioxidotetrahydro-2H-thiopyran-4-yl)-1H-pyrrolo[2,3-b]pyridin-3-yl)-3-(trifluoromethoxy)benzoic acid]: the IC50 was 0.1 to 1000 nM.

Consider `Cc1noc(C)c1-c1cnc2c(c1)c(-c1ccc(C(=O)O)cc1OC(C)C)cn2C(C1CC1)C1CC1` [P-0213, 4-(1-(dicyclopropylmethyl)-5-(3,5-dimethylisoxazol-4-yl)-1H-pyrrolo[2,3-b]pyridin-3-yl)-3-isopropoxybenzoic acid], for which the IC50 was in the range of 0.1 to 1000 nM.
